Patent publication US20240270741A1 (Cogent Biosciences, Inc., priority 2023, published 2024)

The compounds below were run against FGFR2 (Homo sapiens, UniProt P21802) (assay: FGFR wild type enzyme assay (HTRF KinEASE-TK), FGFR2). Details: Enz FGFR2 (nM), FGFR2 wild type enzyme.
Sequence of FGFR2 (P21802 399-821 limits assumed): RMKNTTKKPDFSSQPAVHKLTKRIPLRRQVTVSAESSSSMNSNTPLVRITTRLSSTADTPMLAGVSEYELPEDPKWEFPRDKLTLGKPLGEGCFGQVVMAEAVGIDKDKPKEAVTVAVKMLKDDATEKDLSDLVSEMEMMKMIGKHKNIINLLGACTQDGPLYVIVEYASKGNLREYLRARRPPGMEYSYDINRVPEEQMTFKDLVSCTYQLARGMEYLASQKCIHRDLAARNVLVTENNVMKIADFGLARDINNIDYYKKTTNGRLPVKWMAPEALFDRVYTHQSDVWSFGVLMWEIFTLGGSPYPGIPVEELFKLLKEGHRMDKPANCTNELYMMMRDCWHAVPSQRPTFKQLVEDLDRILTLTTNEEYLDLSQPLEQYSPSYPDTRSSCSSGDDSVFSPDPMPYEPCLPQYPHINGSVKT

Question: Which IC50 does the source give for `Cc1c(-c2cc(Sc3ncccc3F)c3c(C#N)cnn3c2)cnn1C[C@@H]1[C@@H]2CNC[C@@H]21` [Example 236, 6-(1-(((1R,5S,6s)-3-azabicyclo[3.1.0]hexan-6-yl)methyl)-5-methyl-1H-pyrazol-4-yl)-4-((3-fluoropyridin-2-yl)thio)pyrazolo[1,5-a]pyridine-3-carbonitrile] here?
Answer: 1 nM

Question: How did the IC50 turn out when `CC(=O)N1C[C@@H]2[C@H](C1)[C@H]2Cn1ncc(-c2cc(Sc3ncccc3F)c3c(C#N)cnn3c2)c1C` [Example 237, 6-(1-(((1R,5S,6r)-3-acetyl-3-azabicyclo[3.1.0]hexan-6-yl)methyl)-5-methyl-1H-pyrazol-4-yl)-4-((3-fluoropyridin-2-yl)thio)pyrazolo[1,5-a]pyridine-3-carbonitrile] was run?
Answer: 3 nM

Question: Which IC50 does the source give for `CC(=O)N1C[C@@H]2[C@H](C1)[C@@H]2Cn1ncc(-c2cc(Sc3ncccc3F)c3c(C#N)cnn3c2)c1C` [Example 238, 6-(1-(((1R,5S,6s)-3-acetyl-3-azabicyclo[3.1.0]hexan-6-yl)methyl)-5-methyl-1H-pyrazol-4-yl)-4-((3-fluoropyridin-2-yl)thio)pyrazolo[1,5-a]pyridine-3-carbonitrile] here?
Answer: 3 nM

Question: With `Cc1c(-c2cc(Sc3ncccc3F)c3c(C#N)cnn3c2)cnn1C[C@H]1CC[C@H](O)CC1` [Example 239, 4-((3-fluoropyridin-2-yl)thio)-6-(1-(((1r,4r)-4-hydroxycyclohexyl)methyl)-5-methyl-1H-pyrazol-4-yl)pyrazolo[1,5-a]pyridine-3-carbonitrile] as the compound, how does the IC50 read?
Answer: 3 nM

Question: With `Cc1c(-c2cc(Sc3ncccc3F)c3c(C#N)cnn3c2)cnn1C1CCN(Cc2ccccn2)CC1` [Example 240, 4-((3-fluoropyridin-2-yl)thio)-6-(5-methyl-1-(1-(pyridin-2-ylmethyl)piperidin-4-yl)-1H-pyrazol-4-yl)pyrazolo[1,5-a]pyridine-3-carbonitrile] as the compound, how does the IC50 read?
Answer: 2 nM

Question: Which IC50 does the source give for `Cc1c(-c2cc(Sc3ncccc3F)c3c(C#N)cnn3c2)cnn1[C@H]1CC[C@@H](N(C)CCO)CC1` [Example 241, 4-((3-fluoropyridin-2-yl)thio)-6-(1-((1s,4s)-4-((2-hydroxyethyl)(methyl)ami-no)cyclohexyl)-5-methyl-1H-pyrazol-4-yl)pyrazolo[1,5-a]pyridine-3-carbonitrile] here?
Answer: 1 nM

Question: `CCN[C@H]1CC[C@@H](n2ncc(-c3cc(Sc4ncccc4F)c4c(C#N)cnn4c3)c2C)CC1` [Example 242, 6-(1-((1s,4s)-4-(ethylamino)cyclohexyl)-5-methyl-1H-pyrazol-4-yl)-4-((3-fluoropyridin-2-yl)thio)pyrazolo[1,5-a]pyridine-3-carbonitrile] was tested. Which IC50 did it give?
Answer: 1 nM

Question: `Cc1c(-c2cc(Sc3ncccc3F)c3c(C#N)cnn3c2)cnn1[C@H]1CC[C@@H](NC(C)C)CC1` [Example 243, 4-((3-fluoropyridin-2-yl)thio)-6-(1-((1s,4s)-4-(isopropylamino)cyclohex-yl)-5-methyl-1H-pyrazol-4-yl)pyrazolo[1,5-a]pyridine-3-carbonitrile] was tested. Which IC50 did it give?
Answer: 1 nM

Question: Which IC50 does the source give for `Cc1c(-c2cc(Sc3ncccc3F)c3c(C#N)cnn3c2)cnn1[C@H]1CC[C@@H](NCC(F)(F)F)CC1` [Example 244, 4-((3-fluoropyridin-2-yl)thio)-6-(5-methyl-1-((1s,4s)-4-((2,2,2-trifluoroethyl)amino)cyclo-hexyl)-1H-pyrazol-4-yl)pyrazolo[1,5-a]pyridine-3-carbonitrile] here?
Answer: 2.5 nM

Question: For `CC(=O)N1C[C@H]2C[C@H](n3ncc(-c4cc(Sc5ncccc5F)c5c(C#N)cnn5c4)c3C)C[C@H]2C1` [Example 245, 6-(1-((3aR,5s,6aS)-2-acetyloctahydrocylcopenta [c]pyrrol-5-yl)-5-methyl-1H-pyrazol-4-yl)-4-((3-fluoropyridin-2-yl)thio)pyrazolo[1,5-a]pyridine-3-carbonitrile], which IC50 is on record?
Answer: 2.5 nM

Question: For `Cc1c(-c2cc(Sc3ncccc3F)c3c(C#N)cnn3c2)cnn1[C@H]1C[C@H](CO)C1` [Example 246, 4-((3-fluoropyridin-2-yl)thio)-6-(1-((1r,3r)-3-(hydroxymethyl)cyclobutyl)-5-methyl-1H-pyrazol-4-yl)pyrazolo[1,5-a]pyridine-3-carbonitrile], which IC50 is on record?
Answer: 4 nM

Question: `CN(C)[C@H]1CC[C@@H](n2cc(-c3cc(Sc4ncccc4F)c4c(C#N)cnn4c3)cn2)CC1` [Example 247, 6-(1-((1s,4s)-4-(dimethylamino)cyclohex-yl)-1H-pyrazol-4-yl)-4-((3-fluoropyridin-2-yl)thio)pyrazolo[1,5-a]pyridine-3-carbonitrile] was tested. Which IC50 did it give?
Answer: 1 nM

Question: For `CC(=O)N(C)[C@H]1CC[C@@H](n2ncc(-c3cc(Sc4ncccc4F)c4c(C#N)cnn4c3)c2C)CC1` [Example 248, N-((1s,4s)-4-(4-(3-cyano-4-((3-fluoropyridin-2-yl)thio)pyrazolo[1,5-a]pyridin-6-yl)-5-methyl-1H-pyrazol-1-yl)cyclohexyl)-N-methylacetamide], which IC50 is on record?
Answer: 2 nM

Question: For `Cc1c(-c2cc(Sc3ncccc3F)c3c(C#N)cnn3c2)cnn1[C@H]1CC[C@@H](N(C)S(C)(=O)=O)CC1` [Example 249, N-((1s,4s)-4-(4-(3-cyano-4-((3-fluoropyridin-2-yl)thio)pyrazolo[1,5-a]pyridin-6-yl)-5-methyl-1H-pyrazol-1-yl)cyclohexyl)-N-methylmethanesulfonamide], which IC50 is on record?
Answer: 3 nM

Question: How did the IC50 turn out when `CCN[C@H]1CC[C@@H](n2ncc(-c3cc(Sc4ccccc4C#N)c4c(C#N)cnn4c3)c2C)CC1` [Example 250, 4-((2-cyanophenyl)thio)-6-(1-((1s,4s)-4-(ethylamino)cylcohexyl)-5-methyl-1H-pyrazol-4-yl)pyrazolo[1,5-a]pyridine-3-carbonitrile] was run?
Answer: 0.4 nM

Question: For `Cc1c(-c2cc(Sc3ccccc3C#N)c3c(C#N)cnn3c2)cnn1[C@H]1CC[C@@H](NC(C)C)CC1` [Example 251], which IC50 is on record?
Answer: 0.5 nM

Question: Which IC50 does the source give for `Cc1c(-c2cc(Sc3ncccc3F)c3c(C#N)cnn3c2)cnn1C1CCNC(C)C1` (centres unmarked) [Example 252, 4-((3-fluoropyridin-2-yl)thio)-6-(5-methyl-1-(2-methylpiperidin-4-yl)-1H-pyrazol-4-yl)pyrazolo[1,5-a]pyridine-3-carbonitrile] here?
Answer: 1 nM

Question: For `Cc1c(-c2cc(Sc3ncccc3F)c3c(C#N)cnn3c2)cnn1[C@H]1CC[C@@H](NCC2(C)CC2)CC1` [Example 253, 4-((3-fluoropyridin-2-yl)thio)-6-(5-methyl-1-((1s,4s)-4-(((1-methylcyclopropyl)methyl)amino)cyclohexyl)-1H-pyrazol-4-yl)pyrazolo[1,5-a]pyridine-3-carbonitrile], which IC50 is on record?
Answer: 0.6 nM

Question: How did the IC50 turn out when `Cc1c(-c2cc(Sc3ncccc3F)c3c(C#N)cnn3c2)cnn1[C@H]1CC[C@@H](N(C)C(=O)C(C)(C)N)CC1` [Example 254, 2-amino-N-((1s,4s)-4-(4-(3-cyano-4-((3-fluoropyridin-2-yl)thio)pyrazolo[1,5-a]pyridin-6-yl)-5-methyl-1H-pyrazol-1-y)cyclohexyl)-N,2-dimethylpropanamide] was run?
Answer: 1 nM

Question: For `CN[C@H]1CC[C@@H](n2ncc(-c3cc(Sc4ccc(F)cc4C#N)c4c(C#N)cnn4c3)c2C)CC1` [Example 255, 4-((2-cyano-4-fluorophenyl)thio)-6-(5-methyl-1-((1s,4s)-4-(methylamino)cyclohexyl)-1H-pyrazol-4-yl)pyrazolo[1,5-a]pyridine-3-carbonitrile], which IC50 is on record?
Answer: 0.3 nM
